The values below come from publication PMC5978685, “Design, Synthesis, and Evaluation of Novel Immunomodulatory Small Molecules Targeting the CD40–CD154 Costimulatory Protein-Protein Interaction” (Molecules : A Journal of Synthetic Chemistry and Natural …, 2018).

The target of one series is T1, CD154 (CD40L) (Homo sapiens, UniProt P29965).
T1 construct: purchased Peprotech
T1 sequence (P29965 113-261 limits assumed): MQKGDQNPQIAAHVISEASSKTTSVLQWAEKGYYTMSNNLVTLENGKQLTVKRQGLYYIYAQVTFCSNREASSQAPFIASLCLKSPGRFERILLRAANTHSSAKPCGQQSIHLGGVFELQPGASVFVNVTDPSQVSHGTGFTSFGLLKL
The series is described as follows: protein thermal shift (differential scanning fluorimetry), CD154. Format: binding. To be noted: 25 μM of 11, 10 μM of DRI-C21045; CD154 0.05 mg/mL. The source says: (§1) A protein thermal shift assay (differential scanning fluorimetry, also known as ThermoFluor assay) was used to establish whether our small-molecule probes bind to CD40 or CD154 (CD40L). This technique quantifies the shift in protein stability due to ligand binding via use of a dye whose fluorescence increases when exposed to hydrophobic surfaces, which happens as the protein unfolds exposing its normally buried hydrophobic core residues. […]
(§2) This assay was used following standard protocols as described in the literature to establish whether CD154 or CD40 is the binding partner of our compounds. Sypro orange (ThermoFisher; Waltham, MA, USA) was used as the fluorescence detection dye with an RT-PCR machine (StepOnePlus, Applied Biosystems (Foster City, CA, USA); detection on ROX channel, 575/602 nm) programmed to equilibrate samples at 25 °C for 90 s and then increase temperature to 99 °C by 0.4 °C every 24 s before taking a reading. Melting point of the protein is considered the lowest point of the first derivative plot, as calculated by the software included with the RT-PCR machine. Optimal concentrations were determined by performing a series of preliminary scans at various concentrations of protein, compound, and dye (CD154 0.05 mg/mL, CD40-Fc 0.1 mg/mL, Sypro orange 4×, 100 mM HEPES buffer, 10 μM of DRI-C21045 and 25 μM of 11). […]

Another series has as its target T2, CD40 (Homo sapiens, UniProt P25942).
T2 construct: purchased Enzo Life Sciences
The series is described as follows: protein thermal shift (differential scanning fluorimetry), CD40. In kind it is binding. To be noted: 25 μM of 11, 10 μM of DRI-C21045; CD40-Fc 0.1 mg/mL.
From the text: as §1, §2

Series [1] has as its target T3, CD40–CD154 (CD40L) (Homo sapiens, UniProt P29965).
T3 construct: purchased Enzo Life Sciences
T3 sequence (P29965 116-261 limits assumed): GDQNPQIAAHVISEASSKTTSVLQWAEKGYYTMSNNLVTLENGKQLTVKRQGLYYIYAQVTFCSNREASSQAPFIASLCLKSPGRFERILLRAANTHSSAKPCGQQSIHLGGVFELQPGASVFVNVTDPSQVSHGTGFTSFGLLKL
Also on record: method as in PMID 29024591. To be noted: read-out: CD40–CD154 IC50 (previous work); cited from earlier work.

Series [2] deals with T3, CD40–CD154 (CD40L). Description: cell-free ELISA-type binding inhibition assay, CD40–CD154. To be noted: for selectivity toward CD40–CD154 against all other PPIs tested: vs OX40–OX40L, BAFFR–BAFF, TNF-R1–TNF-α. From the text: As a first assessment, the CD40–CD154 inhibitory activity of compounds 6–19 (Figure 2, Table 1) was quantified using a cell-free in vitro binding inhibition assay as described before. Data fitted with typical sigmoidal concentration dependence curves (log inhibitor versus response model in GraphPad Prism, Hill slope n = 1) are summarized in Figure 3A. […] Polymolecular conglomeration and/or aggregation is often a cause of promiscuous inhibition in screening assays. Therefore, just as in our previous work, we checked for this, and we confirmed for several compounds that inhibition due to aggregation is not the case by retesting inhibitory activity in the presence of a non-ionic detergent (Triton-X 100, 0.01%) as recommended for the detection of such effects.
(§3) Binding inhibition assays were performed in a 96-well cell-free format as described before. Briefly, microtiter plates (Nunc F Maxisorp, 96-well; Thermo Fisher Scientific, Waltham, MA, USA) were coated overnight at 4 °C with 100 μL/well of Fc-conjugated receptors diluted in PBS pH 7.2. This was followed by blocking with 200 μL/well of blocking solution (PBS pH 7.2, 0.05% Tween-20, 1% BSA) for 1 h at RT. Then, plates were washed twice using washing solution (PBS pH 7.4, 0.05% Tween-20) and tapped dry before the addition of the appropriate FLAG tagged ligands along with different concentrations of tested dyes diluted in binding buffer (100 mM HEPES, 0.005% BSA pH 7.2) to give a total volume of 100 μL/well. After 1 h incubation, three washes were conducted, and anti-FLAG HRP conjugate was used to detect the bound FLAG-tagged ligand. Plates were washed four times before the addition of 120 μL/well of HRP substrate TMB (3,3′,5,5′-tetramethylbenzidine) and kept in the dark for up to 15 min. The reaction was stopped using 30 μL of 1M H2SO4, and the absorbance value was read at 450 nm. The concentrations of receptors used were 0.3 μg/mL for CD40, TNF-R1, and BAFFR; 0.6 μg/mL for OX40. The concentrations of the ligands were fixed at 0.02 μg/mL for CD154 and TNF-α, 0.06 μg/mL for OX40L, and 0.03 μg/mL for BAFF. These values were selected following preliminary testing to optimize response (i.e., to produce a high-enough signal at conditions close to half-maximal response, EC50). […] To verify that inhibition is not due to colloidal aggregation, CD40 binding inhibition was also measured in the presence of the non-ionic detergent Triton-X 100 (0.01%), as recommended for the detection of such effects.
(§4) All binding inhibition and cell assays were tested in duplicate or triplicate per plates, and assays were performed as at least three independent experiments. As before, binding and cytotoxicity data were converted to percent inhibition and fitted with standard log inhibitor vs. normalized response models using nonlinear regression in GraphPad Prism (GraphPad, La Jolla, CA, USA) to establish half-maximal (median) inhibitory concentration (IC50) or median lethal concentration (LC50) values. Cell assay data were fitted with a similar model that also allowed for a variable slope using the log inhibitor vs. normalized response (variable slope) model from Prism with a Hill slope (n) shared across all compounds. Cell assays and draining lymph node data were analyzed by one-way repeated-measures analysis of variance (ANOVA) followed by Dunnett’s multiple comparison test as a post hoc test for individual differences using GraphPad Prism and a significance level of p < 0.05 for all comparisons.
(§5) Data are (counterclockwise) for human CD40–CD154 (CD40L) (A); OX40–OX40L (B); BAFFR–BAFF (C); and TNF-R1–TNFα (D) and were fitted with standard binding curves. Data are average ± SD (normalized to percent binding) for n = 3 independent experiments with duplicates for each condition.
A general note: In an ELISA, binding on a coated surface is turned into a signal by an enzyme label.

Another series has as its target T4, OX40–OX40L (Homo sapiens, UniProt P23510).
T4 construct: purchased Enzo Life Sciences
T4 sequence (P23510 51-183 limits assumed): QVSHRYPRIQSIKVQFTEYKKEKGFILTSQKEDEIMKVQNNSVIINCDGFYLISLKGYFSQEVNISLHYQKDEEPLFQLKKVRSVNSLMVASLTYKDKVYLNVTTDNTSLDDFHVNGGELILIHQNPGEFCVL
The series is described as follows: cell-free ELISA-type binding inhibition assay, OX40–OX40L. The method, then: (§6) In parallel with the CD40–CD154 assay, the ability of these compounds to inhibit other TNFSFR–TNFSF PPIs, including OX40–OX40L, BAFFR–BAFF, and TNF-R1–TNF-α, was also assessed (Figure 3B–D).
as §3, §4, §5

In another series the target is T5, BAFFR–BAFF (Homo sapiens, UniProt Q9Y275).
T5 construct: purchased Enzo Life Sciences
Description: cell-free ELISA-type binding inhibition assay, BAFFR–BAFF. The method, then: as §6, §3, §4, §5

Another series addresses T6, TNF-R1–TNFα (Homo sapiens, UniProt P01375).
T6 construct: purchased Enzo Life Sciences
The series is described as follows: cell-free ELISA-type binding inhibition assay, TNF-R1–TNFα. The conditions noted are these: cell-free TNF-R1–TNFα binding inhibition; read-out: TNF IC50. The method, then:
as §6, §3, §4, §5

Series [3] concerns CD154-induced NF-κB activation in CD40 sensor cells. Description: CD40 sensor cell assay (HEK Blue CD40, SEAP reporter). In kind it is cell-based, human.
From the text: (§7) As further confirmation of the inhibitory activity of our compounds, a cell-based assay was used with sensor cells (HEK Blue CD40) containing a secreted embryonic alkaline phosphatase (SEAP) reporter gene under the control of a promoter fused to a NF-κB binding site and transfected with CD40. […] For all tested compounds, the corresponding IC50 values are higher than those determined in the cell-free binding inhibition assay (Table 1) representing a loss of activity which is likely due to non-specific binding on account of the presence of proteins and cells in the assay, as well as hydrophobicity-related problems. Cytotoxicities were also evaluated in these same cells and at the same concentrations using a standard MTS assay to ensure that effects are present at non-toxic concentration levels.
CD40 expressing NF-κB sensor cells (HEK Blue, InvivoGen, San Diego, CA, USA) were used to assess the ability of the present compounds to block CD154-induced activation as described before. Briefly, cells were maintained in DMEM at 80% confluence for each experiment. Cells were trypsinized and re-suspended in the same medium without FBS and seeded on 96-well microtiter plates at a density of 50,000 cells/well in the absence and presence of various concentrations of compounds diluted in the same media. For ligand mediated stimulation, a concentration of recombinant human CD154 (100 ng/mL) found to induce an optimal response was maintained in the wells for this purpose. After 24 h of incubation at 37 °C, 40 μL supernatant of each well were taken and added to another 96-well microtiter plate containing 160 μL/well of QUANTI-Blue (InvivoGen). The level of SEAP was determined after 1 h of incubation at 37 °C by reading at 650 nm using a spectrophotometer. A monoclonal anti-human CD154 antibody (clone 40804, R&D Systems, Minneapolis, MN, USA) was used as a positive control at 240 nM concentration.
as §4
Figure 5 Inhibition of CD154-induced NF-κB activation in CD40 sensor cells by compounds 6, 14, 15, and 18 in a concentration-dependent manner. Tartrazine (TZ) and an anti-CD154 antibody (mAb; single dose, 240 nM) were included as negative and positive controls, respectively. Data are average ± SD (normalized to CD154-activated cells alone) for n = 2 independent experiments with duplicates for each condition.

Series [4] is described as follows: MTS cytotoxicity assay in HEK Blue cells. Format: cell-based. The conditions noted are these: human, HEK Blue CD40 sensor cells; HEK Blue cells, 24 h; read-out: LC50 (cytotoxicity, MTS).
From the text: as §7
(§8) For the MTS assay, HEK Blue cells were cultured and prepared in the same manner as in the CD40 sensor assay. Then cells were added to a 96-well microtiter plate at a density of 50,000 cells/well in the absence or presence of various concentrations of compounds diluted in the same media, without the addition of CD154. The plate was incubated at 37 °C for 24 h. 20 µL per well of MTS, 3-(4,5-dimethylthiazol-2-yl)-5-(3-carboxymethoxyphenyl)-2-(4-sulfophenyl)-2H-tetrazolium, (Promega, Madison, WI, USA) was added to the culture after treatments, and cells were incubated at 37 °C for 4 h. Formazan levels were measured using a plate reader at 490 nm.
as §4

A further series relates to HEK Blue cells. Description: MTS cytotoxicity assay in HEK Blue cells. In kind it is cell-based. The conditions noted are these: LC50 (MTS) / NF-κB IC50 in sensor cells.
From the text: as §7, §8, §4
On the technique in general: Tetrazolium dyes change colour on reduction, which living cells bring about.

Series [5] in a line: solubilization in the in vivo dosing vehicle. Format: physicochemical. The conditions noted are these: vehicle 20% HPβCD.
The mark [6] stands for this setting: cell-free CD40–CD154 binding inhibition, read-out: CD40 IC50.

SMILES strings stand for the structures. Where two headings read alike, the source gives them in different places. Some results are limits rather than exact numbers.

T6 sequence (P01375 85-233 limits assumed): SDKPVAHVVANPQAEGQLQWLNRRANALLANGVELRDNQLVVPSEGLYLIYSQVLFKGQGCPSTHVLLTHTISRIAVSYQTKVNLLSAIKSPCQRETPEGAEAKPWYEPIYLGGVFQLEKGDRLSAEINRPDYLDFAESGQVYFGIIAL
T5 sequence (Q9Y275 134-285 limits assumed): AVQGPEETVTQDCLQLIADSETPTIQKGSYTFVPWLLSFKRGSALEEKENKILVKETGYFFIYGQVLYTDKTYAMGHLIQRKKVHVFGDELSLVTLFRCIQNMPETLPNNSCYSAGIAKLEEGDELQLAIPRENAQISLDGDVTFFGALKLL
T2 sequence (P25942 21-277): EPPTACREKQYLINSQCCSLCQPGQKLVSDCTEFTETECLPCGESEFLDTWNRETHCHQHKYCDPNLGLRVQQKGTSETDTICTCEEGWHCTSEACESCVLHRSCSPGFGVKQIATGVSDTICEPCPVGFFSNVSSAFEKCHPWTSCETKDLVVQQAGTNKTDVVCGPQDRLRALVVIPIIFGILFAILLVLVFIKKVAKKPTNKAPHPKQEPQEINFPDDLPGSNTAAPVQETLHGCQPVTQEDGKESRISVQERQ

Take `COC(=O)c1ccc(C(=O)Nc2ccc(-c3ccc(C(=O)Nc4cccc5cccc(S(=O)(=O)O)c45)cc3)cc2)cc1` [DRI-C21045, reference compound]: the “shift in melting temperature (Tm) of CD154” value on CD154 (CD40L) is on record as “caused clear shifts”. At CD40, the “shift in melting temperature (Tm) of CD40” value is listed as “not for CD40”. Also, at CD40–CD154 (CD40L) [1], the IC50 is 0.17 µM.

`COC(=O)c1ccc(C(=O)Nc2ccc(-c3ccc(C(=O)Nc4ccc(S(=O)(=O)O)c5cccc(S(=O)(=O)O)c45)cc3)cc2)cc1` [Compound 11, 4-(4′-(4-(Methoxycarbonyl)benzamido)-[1,1′-biphenyl]-4-carboxamido)naphthalene-1,5-disulfonic acid]: the concentration for half-maximal inhibition (IC50) at CD40–CD154 (CD40L) [2] (setting [6]) came out at 60.1 µM; on CD40–CD154 (CD40L) [2] (cell-free binding inhibition assay, read-out: CD40–CD154 IC50), 60 µM; on OX40–OX40L, 120 µM; on BAFFR–BAFF, 540 µM; on TNF-R1–TNFα, 456 µM. In addition, the “shift in melting temperature (Tm) of CD154” value at CD154 (CD40L) was “caused clear shifts”. Moreover, on CD40, the “shift in melting temperature (Tm) of CD40” value is reported as “not for CD40”.

For `O=C(Nc1ccc(-c2ccc(C(=O)Nc3cccc4cccc(S(=O)(=O)O)c34)cc2)cc1)c1ccc(-c2ccc([N+](=O)[O-])cc2)cc1` [Compound 14, 8-(4′-(4′-Nitro-[1,1′-biphenyl]-4-carboxamido)-[1,1′-biphenyl]-4-carboxamido)naphthalene-1-sulfonic acid], the half-maximal inhibitory concentration (IC50) on CD40–CD154 (CD40L) [2] (setting [6]) was 0.02 µM; at OX40–OX40L it was 6.88 µM; at BAFFR–BAFF, 0.784 µM; on TNF-R1–TNFα, 70.3 µM; in series [3] (Homo sapiens, CD154 100 ng/mL, 24 h), 11.1 µM. Further, the “selectivity toward CD40–CD154 against all other PPIs tested” value at CD40–CD154 (CD40L) [2] was above 30 fold; on CD40–CD154 (CD40L) [2] (listed as DRI-C21091), “more than thirty-fold”. Further, the “inhibition of CD154-induced NF-κB activation (qualitative)” value in series [3] is “concentration-dependent inhibition”. Further, the CC50 at 24 h in series [4] was 55.6 µM. In addition, the “therapeutic index, TI = LC50/IC50” value with HEK Blue cells is 5. Besides, the “solubility in the vehicle for in vivo dosing” value in [5] was “could not be sufficiently solubilized in the vehicle”.

As usually defined, the IC50 is the midpoint of a concentration-inhibition curve.
